Measurements taken from ChEMBL document CHEMBL3046950, “Insecticide resistance traits differ among and within host races in Aphis gossypii” (2010).

Key:
[1] = tested on: Aphis gossypii; type: functional
[2] = tested on: Aphis gossypii; experiment: Insecticidal activity against Aphis gossypii clone Ivo (cotton aphid) in cotton plant leaf assessed as mortality after 24 hr by leaf disk assay; type: functional
[3] = tested on: Aphis gossypii; type: functional, clone C4
[4] = tested on: Aphis gossypii; type: functional; remark: listed apart in the source
[5] = tested on: Aphis gossypii; type: functional; remark: listed apart in the source
[6] = tested on: Aphis gossypii; experiment: Insecticidal activity against Aphis gossypii clone Burk (cotton aphid) in cotton plant leaf assessed as mortality after 24 hr by leaf disk assay; type: functional
[7] = tested on: Aphis gossypii; type: functional, clone NM1
[8] = tested on: Aphis gossypii; type: functional; remark: listed apart in the source
[9] = tested on: Aphis gossypii; type: functional, clone C9
[10] = tested on: Aphis gossypii; experiment: Insecticidal activity against Aphis gossypii clone Auber (cotton aphid) in egg plant leaf assessed as mortality after 24 hr by leaf disk assay; type: functional
[11] = tested on: Aphis gossypii; type: functional; remark: listed apart in the source
[12] = tested on: Aphis gossypii; experiment: Insecticidal activity against Aphis gossypii clone PsP4 (cotton aphid) in pepper plant leaf assessed as mortality after 24 hr by leaf disk assay; type: functional
[13] = tested on: Aphis gossypii; type: functional; remark: listed apart in the source
[14] = tested on: Aphis gossypii; experiment: Insecticidal activity against Aphis gossypii clone NM1 (cotton aphid) in zucchini or squash leaf assessed as mortality after 24 hr by leaf disk assay in presence of S,S,S-tri-n-butyl phosphorotrithioate; type: functional
[15] = tested on: Aphis gossypii; experiment: Synergist ratio, ratio of LC50 for Aphis gossypii clone Auber (cotton aphid) in presence of piperonyl butoxide to LC50 for Aphis gossypii clone Auber; type: functional
[16] = tested on: Aphis gossypii; experiment: Insecticidal activity against Aphis gossypii clone Auber (cotton aphid) in egg plant leaf assessed as mortality after 24 hr by leaf disk assay in presence of S,S,S-tri-n-butyl phosphorotrithioate; type: functional
[17] = tested on: Aphis gossypii; experiment: Synergist ratio, ratio of LC50 for Aphis gossypii clone NM1 (cotton aphid) in presence of S,S,S-tri-n-butyl phosphorotrithioate to LC50 for Aphis gossypii clone NM1; type: functional
[18] = tested on: Aphis gossypii; experiment: Insecticidal activity against Aphis gossypii clone Burk (cotton aphid) in egg plant leaf assessed as mortality after 24 hr by leaf disk assay in presence of piperonyl butoxide; type: functional
[19] = tested on: Aphis gossypii; experiment: Synergist ratio, ratio of LC50 for Aphis gossypii clone Burk (cotton aphid) in presence of piperonyl butoxide to LC50 for Aphis gossypii clone […]; type: functional
[20] = tested on: Aphis gossypii; experiment: Insecticidal activity against Aphis gossypii clone Auber (cotton aphid) in egg plant leaf assessed as mortality after 24 hr by leaf disk assay in presence of piperonyl butoxide; type: functional
[21] = tested on: Aphis gossypii; experiment: Insecticidal activity against Aphis gossypii clone NM1 (cotton aphid) in zucchini or squash leaf assessed as mortality after 24 hr by leaf disk assay in presence of piperonyl butoxide; type: functional
[22] = tested on: Aphis gossypii; experiment: Synergist ratio, ratio of LC50 for Aphis gossypii clone Auber (cotton aphid) in presence of S,S,S-tri-n-butyl phosphorotrithioate to LC50 for Aphis gossypii clone Auber; type: functional
[23] = tested on: Aphis gossypii; experiment: Synergist ratio, ratio of LC50 for Aphis gossypii clone Burk (cotton aphid) in presence of S,S,S-tri-n-butyl phosphorotrithioate to LC50 for Aphis gossypii clone Burk; type: functional
[24] = tested on: Aphis gossypii; experiment: Synergist ratio, ratio of LC50 for Aphis gossypii clone NM1 (cotton aphid) in presence of piperonyl butoxide to LC50 for Aphis gossypii clone NM1; type: functional
[25] = tested on: Aphis gossypii; experiment: Insecticidal activity against Aphis gossypii clone Burk (cotton aphid) in egg plant leaf assessed as mortality after 24 hr by leaf disk assay in presence of S,S,S-tri-n-butyl phosphorotrithioate; type: functional

Structure (SMILES) | RatioLC50 [1] | LC50 [2] | LC50 [3] | RatioLC50 [4] | RatioLC50 [5] | LC50 [6] | LC50 [7] | RatioLC50 [8] | LC50 [9] | LC50 [10] | RatioLC50 [11] | LC50 [12] | RatioLC50 [13] | also measured
C/C(=N\C#N)N(C)Cc1ccc(Cl)nc1 | 1.1 | 4 ugAi/ml | 3.7 ugAi/ml | 1 | 1.6 | 6.4 ugAi/ml | 3.9 ugAi/ml | 2 | 4.3 ugAi/ml | 7.9 ugAi/ml | 0.6 | 2.5 ugAi/ml | 0.9 | –
CC1(C)C(C=C(Cl)Cl)C1C(=O)OC(C#N)c1cccc(Oc2ccccc2)c1 (stereo not drawn) [ALPHA-CYPERMETHRIN] | 0.5 | 7.1 ugAi/ml | 6.3 ugAi/ml | 0.5 | 473 | 6763.5 ugAi/ml | 10.9 ugAi/ml | 41.2 | 7.2 ugAi/ml | 504 ugAi/ml | 1.4 | 19.7 ugAi/ml | 0.4 | LC50 [14]: 119 ugAi/ml; RatioLC50 [15]: 4.2; LC50 [16]: 8.5 ugAi/ml; RatioLC50 [17]: 1.3; LC50 [18]: 207 ugAi/ml; RatioLC50 [19]: 1; LC50 [20]: 23360 ugAi/ml; LC50 [21]: 13.2 ugAi/ml; RatioLC50 [22]: 2.4; RatioLC50 [23]: 1.3; RatioLC50 [24]: 0.8; LC50 [25]: 18516 ugAi/ml
CCCCN(CCCC)SN(C)C(=O)Oc1cccc2c1OC(C)(C)C2 [CARBOSULFAN] | 1.2 | 2.2 ugAi/ml | 5.7 ugAi/ml | 0.5 | 0.7 | 3.1 ugAi/ml | 4.6 ugAi/ml | 0.9 | 5.6 ugAi/ml | 4 ugAi/ml | 0.9 | 4.2 ugAi/ml | 1.2 | –
Clc1ccc(C(c2ccc(Cl)cc2)C(Cl)(Cl)Cl)cc1 [CHLOROPHENOTHANE] | – | – | – | – | 148.7 | 30738.4 ugAi/ml | 206.7 ugAi/ml | 1.4 | – | 291.6 ugAi/ml | – | – | – | –
CCCSP(=O)(OCC)Oc1ccc(Br)cc1Cl (centres undefined) [PROFENOFOS] | 1.5 | 4.3 ugAi/ml | 15 ugAi/ml | 0.4 | 4.4 | 50 ugAi/ml | 11.3 ugAi/ml | 5.3 | 17.2 ugAi/ml | 59.6 ugAi/ml | 6.8 | 77.1 ugAi/ml | 1.3 | –
